pIC50: −log10 of the molar value. Some results are limits rather than exact numbers.

In one assay the target is T1, P2X7 receptor (Homo sapiens, UniProt Q99572).
T1 construct: host or cells: THP-1 cells differentiated with LPS and IFN-γ
T1 sequence (Q99572 1-595): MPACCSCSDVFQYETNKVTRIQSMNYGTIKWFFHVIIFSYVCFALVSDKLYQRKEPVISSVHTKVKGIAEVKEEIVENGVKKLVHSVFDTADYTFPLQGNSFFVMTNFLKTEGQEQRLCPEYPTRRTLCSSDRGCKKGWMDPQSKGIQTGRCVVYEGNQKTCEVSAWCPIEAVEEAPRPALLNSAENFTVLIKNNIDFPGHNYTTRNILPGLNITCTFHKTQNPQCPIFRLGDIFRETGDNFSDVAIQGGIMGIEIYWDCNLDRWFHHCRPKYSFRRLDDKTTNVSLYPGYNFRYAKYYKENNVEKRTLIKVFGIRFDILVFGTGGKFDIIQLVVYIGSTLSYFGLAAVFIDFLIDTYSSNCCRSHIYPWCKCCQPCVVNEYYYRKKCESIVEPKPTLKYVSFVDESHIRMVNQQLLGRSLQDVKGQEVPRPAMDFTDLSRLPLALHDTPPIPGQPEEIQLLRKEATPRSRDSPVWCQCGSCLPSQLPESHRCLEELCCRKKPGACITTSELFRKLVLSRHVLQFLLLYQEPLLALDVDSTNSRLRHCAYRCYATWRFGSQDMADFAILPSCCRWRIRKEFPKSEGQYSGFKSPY
Kind of assay: IL-1β release assay in differentiated THP-1 cells stimulated with BzATP (Example 9). Type of assay: cell-based. Set-up: inhibition: dose or concentration left out as unconfirmed. Conditions: 0.1 μM compound; differentiated THP-1 cells, BzATP 250 uM; "*" class symbols; read-out: IL-1β % Inhib. ("*" symbols: at 0.1 μM). In a few lines: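 IC50 derived by four-parameter logistic fit of percent inhibition of IL-1β release, measured by ELISA after 45 min stimulation with 250 uM BzATP. Cells: THP-1 differentiated 16 h with 100 ng/mL LPS plus IFN-γ, LPS-primed 2 h, compound added 30 min beforehand.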
For the compound `Cc1c(Cl)cccc1C(=O)Nc1cccc2c(=O)n(Cc3ccc(OC(F)(F)F)cc3)ccc12` [Compound 1598], the inhibition at 0.1 µM was 26 to 50%.
Same read-out and setting: with `Cc1cc(C)cc(CC(=O)Nc2cccc3c(=O)n(Cc4ccc(OC(F)(F)F)cc4)ccc23)c1` [Compound 1599] the figure was 0 to 25%; with `O=C(Nc1cccc2c(=O)n(Cc3ccc(OC(F)(F)F)cc3)ccc12)C1C[C@@H]2CC[C@H]1C2` (stereo partly drawn) [Compound 1600], 0 to 25%.
Still for that read-out and setting: the figure for `COc1ccc(CC(=O)Nc2cccc3c(=O)n(Cc4ccc(OC(F)(F)F)cc4)ccc23)c(OC)c1` [Compound 1601] is 0 to 25%.
Regarding `Cc1cc(C(=O)Nc2cccc3c(=O)n(Cc4ccc(OC(F)(F)F)cc4)ccc23)ccc1F` [Compound 1602], the inhibition at 0.1 µM fell in the range of 0 to 25%.
In the case of `O=C(CCc1ccc(Cl)cc1)Nc1cccc2c(=O)n(Cc3ccc(OC(F)(F)F)cc3)ccc12` [Compound 1603], the inhibition at 0.1 µM lay in the range of 0 to 25%.
As for `CCOc1ccccc1CC(=O)Nc1cccc2c(=O)n(Cc3ccc(OC(F)(F)F)cc3)ccc12` [Compound 1604], the inhibition at 0.1 µM fell in the range of 0 to 25%.
As to `COc1ccc(CC(=O)Nc2cccc3c(=O)n(Cc4ccc(OC(F)(F)F)cc4)ccc23)cc1C` [Compound 1605], the inhibition at 0.1 µM is 0 to 25%.
As for `Cc1cccc(CCC(=O)Nc2cccc3c(=O)n(Cc4ccc(OC(F)(F)F)cc4)ccc23)c1` [Compound 1606], the inhibition at 0.1 µM was in the range of 0 to 25%.
Same read-out and setting: with `Cc1cccc(C(=O)Nc2cccc3c(=O)n(Cc4ccc(OC(F)(F)F)cc4)ccc23)c1Cl` [Compound 1607] the figure was 0 to 25%; with `COc1ccc(C(=O)Nc2cccc3c(=O)n(Cc4ccc(OC(F)(F)F)cc4)ccc23)cc1C` [Compound 1608], 0 to 25%; with `Cc1ccc(CCC(=O)Nc2cccc3c(=O)n(Cc4ccc(OC(F)(F)F)cc4)ccc23)c(C)c1` [Compound 1609], 0 to 25%.
As for `O=C(CCc1cccc(Cl)c1)Nc1cccc2c(=O)n(Cc3ccc(OC(F)(F)F)cc3)ccc12` [Compound 1610], the inhibition at 0.1 µM lay within 0 to 25%.

The same assay, now with this note: 0.3 μM compound; differentiated THP-1 cells, BzATP 250 uM; "+" class symbols; read-out: IL-1β % Inhib. @ 0.3 μM.
In the case of `CN(C)CCn1ccc2c(NC(=O)Cc3ccc(Cl)cc3C(F)(F)F)cccc2c1=O` [Compound 1611], the inhibition at 0.3 µM fell in the range of 0 to 25%.
Consider `CC(C)C(C(=O)Nc1cccc2c(=O)n(CCN(C)C)ccc12)c1ccc(Cl)cc1` (stereo not drawn) [Compound 1612], for which the inhibition at 0.3 µM was 0 to 25%.
Same read-out and setting: the figure for `CN(C)CCn1ccc2c(NC(=O)Cc3ccccc3Br)cccc2c1=O` [Compound 1613] is 0 to 25%; for `CN(C)CCn1ccc2c(NC(=O)C3(c4ccc(Cl)cc4)CCCC3)cccc2c1=O` [Compound 1614] it is 0 to 25%; for `CO[C@@](C(=O)Nc1cccc2c(=O)n(CCN(C)C)ccc12)(c1ccccc1)C(F)(F)F` [Compound 1615] it is 0 to 25%.
On to `CO[C@](C(=O)Nc1cccc2c(=O)n(CCN(C)C)ccc12)(c1ccccc1)C(F)(F)F` [Compound 1616], for which the inhibition at 0.3 µM lay in the range of 0 to 25%.
Same read-out and setting: the figure for `CC(=O)OCCn1ccc2c(NC(=O)Cc3ccc(C(F)(F)F)cc3C(F)(F)F)cccc2c1=O` [Compound 1617] is 26 to 50%.
For the compound `CN(C)CCn1ccc2c(NC(=O)Cc3ccc(C(F)(F)F)cc3C(F)(F)F)cccc2c1=O` [Compound 1618], the inhibition at 0.3 µM lay in the range of 0 to 25%.
Consider `CC(C)(C)OC(=O)N1CCC[C@H]1Cn1ccc2c(NC(=O)CC3CCCCCC3)cccc2c1=O` [Compound 1619], for which the inhibition at 0.3 µM was ≥ 76%.
With `CC(C)(C)OC(=O)N1CCC[C@@H]1Cn1ccc2c(NC(=O)Cc3ccc(Cl)c(C(F)(F)F)c3)cccc2c1=O` [Compound 1620], the inhibition at 0.3 µM is ≥ 76%.

The same assay, now with this note: THP-1; read-out: IL-1β % Inhib.
Regarding `Cc1cccc(C(=O)Nc2cccc3c(=O)n(Cc4ccc(OC(F)(F)F)cc4)ccc23)c1` [Compound 1567], the inhibition fell in the range of 0 to 25%.
On to `CCOc1ccc(C(=O)Nc2cccc3c(=O)n(Cc4ccc(OC(F)(F)F)cc4)ccc23)cc1` [Compound 1568], for which the inhibition was 0 to 25%.
Still for that read-out and setting: the figure for `CC(C(=O)Nc1cccc2c(=O)n(Cc3ccc(OC(F)(F)F)cc3)ccc12)c1ccccc1` (stereo not drawn) [Compound 1570] is 0 to 25%; for `COc1ccccc1CCC(=O)Nc1cccc2c(=O)n(Cc3ccc(OC(F)(F)F)cc3)ccc12` [Compound 1571] it is 0 to 25%; for `COc1ccc(CCC(=O)Nc2cccc3c(=O)n(Cc4ccc(OC(F)(F)F)cc4)ccc23)cc1` [Compound 1572] it is 0 to 25%.
Consider `O=C(Cc1cccc2ccccc12)Nc1cccc2c(=O)n(Cc3ccc(OC(F)(F)F)cc3)ccc12` [Compound 1573], for which the inhibition was in the range of 0 to 25%.
Still for that read-out and setting: with `O=C(Nc1cccc2c(=O)n(Cc3ccc(OC(F)(F)F)cc3)ccc12)c1ccc2ccccc2c1` [Compound 1574] the figure was 0 to 25%; with `O=C(Cc1ccccc1F)Nc1cccc2c(=O)n(Cc3ccc(OC(F)(F)F)cc3)ccc12` [Compound 1575], 0 to 25%.
Consider `O=C(Cc1ccccc1Cl)Nc1cccc2c(=O)n(Cc3ccc(OC(F)(F)F)cc3)ccc12` [Compound 1576], for which the inhibition was 0 to 25%.
Consider `COc1ccccc1CC(=O)Nc1cccc2c(=O)n(Cc3ccc(OC(F)(F)F)cc3)ccc12` [Compound 1577], for which the inhibition was in the range of 0 to 25%.
Same read-out and setting: with `COc1ccc(OC)c(CC(=O)Nc2cccc3c(=O)n(Cc4ccc(OC(F)(F)F)cc4)ccc23)c1` [Compound 1578] the figure was 0 to 25%.
As to `Cc1ccccc1CC(=O)Nc1cccc2c(=O)n(Cc3ccc(OC(F)(F)F)cc3)ccc12` [Compound 1579], the inhibition was 0 to 25%.
Take `COc1cccc(CC(=O)Nc2cccc3c(=O)n(Cc4ccc(OC(F)(F)F)cc4)ccc23)c1` [Compound 1580]: the inhibition was in the range of 0 to 25%.
The same measure, in the same setting: with `COc1ccc(CC(=O)Nc2cccc3c(=O)n(Cc4ccc(OC(F)(F)F)cc4)ccc23)cc1OC` [Compound 1581] the figure was 0 to 25%.
Same read-out and setting: with `Cc1cccc(CC(=O)Nc2cccc3c(=O)n(Cc4ccc(OC(F)(F)F)cc4)ccc23)c1` [Compound 1582] the figure was 0 to 25%; with `COc1ccc(CC(=O)Nc2cccc3c(=O)n(Cc4ccc(OC(F)(F)F)cc4)ccc23)cc1` [Compound 1583], 26 to 50%; with `CCOc1ccc(CC(=O)Nc2cccc3c(=O)n(Cc4ccc(OC(F)(F)F)cc4)ccc23)cc1` [Compound 1584], 0 to 25%.
Consider `Cc1ccc(CC(=O)Nc2cccc3c(=O)n(Cc4ccc(OC(F)(F)F)cc4)ccc23)cc1` [Compound 1585], for which the inhibition lay in the range of 0 to 25%.
Turning to `O=C(CCCc1ccccc1)Nc1cccc2c(=O)n(Cc3ccc(OC(F)(F)F)cc3)ccc12` [Compound 1586], the inhibition fell in the range of 0 to 25%.
In the case of `O=C(Nc1cccc2c(=O)n(Cc3ccc(OC(F)(F)F)cc3)ccc12)c1cc2ccccc2o1` [Compound 1587], the inhibition was 0 to 25%.
Still for that read-out and setting: the figure for `O=C(Cc1ccc2c(c1)OCO2)Nc1cccc2c(=O)n(Cc3ccc(OC(F)(F)F)cc3)ccc12` [Compound 1588] is 0 to 25%.
Still for that read-out and setting: the figure for `COc1cc(CC(=O)Nc2cccc3c(=O)n(Cc4ccc(OC(F)(F)F)cc4)ccc23)cc(OC)c1` [Compound 1589] is 0 to 25%; for `COc1c(C)cc(C(=O)Nc2cccc3c(=O)n(Cc4ccc(OC(F)(F)F)cc4)ccc23)cc1C` [Compound 1590] it is 26 to 50%.
With `Cc1ccc(C(=O)Nc2cccc3c(=O)n(Cc4ccc(OC(F)(F)F)cc4)ccc23)cc1Cl` [Compound 1591], the inhibition is 0 to 25%.
Same read-out and setting: with `Cc1cc(Cl)ccc1C(=O)Nc1cccc2c(=O)n(Cc3ccc(OC(F)(F)F)cc3)ccc12` [Compound 1592] the figure was 0 to 25%; with `O=C(CC1CC2CC[C@H]1C2)Nc1cccc2c(=O)n(Cc3ccc(OC(F)(F)F)cc3)ccc12` (stereo partly drawn) [Compound 1593], 0 to 25%; with `O=C(Nc1cccc2c(=O)n(Cc3ccc(OC(F)(F)F)cc3)ccc12)[C@@]12C[C@@H]3C[C@@H](C[C@@H]1C3)C2` [Compound 1594], 0 to 25%.
On to `O=C(Nc1cccc2c(=O)n(Cc3ccc(OC(F)(F)F)cc3)ccc12)c1cccc2c1OCCO2` [Compound 1595], for which the inhibition lay in the range of 0 to 25%.
On the same count and under the same terms, the figure for `O=C(Nc1cccc2c(=O)n(Cc3ccc(OC(F)(F)F)cc3)ccc12)c1ccc2c(c1)OCCCO2` [Compound 1596] is 0 to 25%; for `O=C(Cc1csc2ccccc12)Nc1cccc2c(=O)n(Cc3ccc(OC(F)(F)F)cc3)ccc12` [Compound 1597] it is 0 to 25%.

The assay is the same for the next values; noted with them: THP-1 cells, BzATP-stimulated IL-1β release, four parameter logistic fit.
A word on the pIC50: it is −log10 of the IC50, conventionally taken in molar units. As to `CN(C)CCn1ccc2c(NC(=O)Cc3ccc(Cl)cc3C(F)(F)F)cccc2c1=O` [Compound 1611], the pIC50 was 6.03.
The same measure, in the same setting: the figure for `CC(C)C(C(=O)Nc1cccc2c(=O)n(CCN(C)C)ccc12)c1ccc(Cl)cc1` (stereo not drawn) [Compound 1612] is < 6.00.
For `CN(C)CCn1ccc2c(NC(=O)Cc3ccccc3Br)cccc2c1=O` [Compound 1613], the pIC50 is < 6.00.
Same read-out and setting: with `CN(C)CCn1ccc2c(NC(=O)C3(c4ccc(Cl)cc4)CCCC3)cccc2c1=O` [Compound 1614] the figure was < 6.00.
On to `CO[C@@](C(=O)Nc1cccc2c(=O)n(CCN(C)C)ccc12)(c1ccccc1)C(F)(F)F` [Compound 1615], for which the pIC50 was < 6.00.
On the same count and under the same terms, with `CO[C@](C(=O)Nc1cccc2c(=O)n(CCN(C)C)ccc12)(c1ccccc1)C(F)(F)F` [Compound 1616] the figure was < 6.00.
In the case of `CC(=O)OCCn1ccc2c(NC(=O)Cc3ccc(C(F)(F)F)cc3C(F)(F)F)cccc2c1=O` [Compound 1617], the pIC50 was 6.38.
As for `CN(C)CCn1ccc2c(NC(=O)Cc3ccc(C(F)(F)F)cc3C(F)(F)F)cccc2c1=O` [Compound 1618], the pIC50 was < 6.00.
On the same count and under the same terms, with `CC(C)(C)OC(=O)N1CCC[C@H]1Cn1ccc2c(NC(=O)CC3CCCCCC3)cccc2c1=O` [Compound 1619] the figure was 7.17.
Same read-out and setting: with `CC(C)(C)OC(=O)N1CCC[C@@H]1Cn1ccc2c(NC(=O)Cc3ccc(Cl)c(C(F)(F)F)c3)cccc2c1=O` [Compound 1620] the figure was 7.39.

These data come from patent US8546579B2, “Bicycloheteroaryl compounds as P2X7 modulators and uses thereof” (Evotec (US) Inc., priority 2006, dated 2013).
